In patent publication US20160362408A1 (Bayer Pharma Aktiengesellschaft, priority 2013, published 2016):
Structures can show the parent of a compound that is named as a salt.

Target: T1, recombinant guanylate cyclase reporter cell line (Rattus norvegicus, UniProt P19686+P20595)
T1 construct: expressed in transfected cells
T1 sequence (P19686 1-690): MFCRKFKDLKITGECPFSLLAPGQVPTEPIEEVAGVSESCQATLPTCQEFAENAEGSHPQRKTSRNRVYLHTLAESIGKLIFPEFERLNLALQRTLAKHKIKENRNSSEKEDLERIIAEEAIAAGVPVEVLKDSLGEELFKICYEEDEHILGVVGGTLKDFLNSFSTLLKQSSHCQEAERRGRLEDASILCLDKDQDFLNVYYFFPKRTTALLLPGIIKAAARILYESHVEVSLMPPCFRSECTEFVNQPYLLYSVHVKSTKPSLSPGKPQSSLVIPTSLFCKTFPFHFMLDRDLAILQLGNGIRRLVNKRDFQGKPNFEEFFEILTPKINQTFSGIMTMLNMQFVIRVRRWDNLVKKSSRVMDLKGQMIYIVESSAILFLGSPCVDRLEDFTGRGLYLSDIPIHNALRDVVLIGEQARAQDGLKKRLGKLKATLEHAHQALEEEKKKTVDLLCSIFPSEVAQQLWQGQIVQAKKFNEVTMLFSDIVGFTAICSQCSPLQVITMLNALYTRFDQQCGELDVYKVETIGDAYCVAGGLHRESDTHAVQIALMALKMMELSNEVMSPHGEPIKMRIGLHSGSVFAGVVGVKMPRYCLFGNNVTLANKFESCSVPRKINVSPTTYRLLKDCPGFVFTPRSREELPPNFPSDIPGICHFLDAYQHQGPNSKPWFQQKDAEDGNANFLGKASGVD
T1 sequence (P20595 1-619): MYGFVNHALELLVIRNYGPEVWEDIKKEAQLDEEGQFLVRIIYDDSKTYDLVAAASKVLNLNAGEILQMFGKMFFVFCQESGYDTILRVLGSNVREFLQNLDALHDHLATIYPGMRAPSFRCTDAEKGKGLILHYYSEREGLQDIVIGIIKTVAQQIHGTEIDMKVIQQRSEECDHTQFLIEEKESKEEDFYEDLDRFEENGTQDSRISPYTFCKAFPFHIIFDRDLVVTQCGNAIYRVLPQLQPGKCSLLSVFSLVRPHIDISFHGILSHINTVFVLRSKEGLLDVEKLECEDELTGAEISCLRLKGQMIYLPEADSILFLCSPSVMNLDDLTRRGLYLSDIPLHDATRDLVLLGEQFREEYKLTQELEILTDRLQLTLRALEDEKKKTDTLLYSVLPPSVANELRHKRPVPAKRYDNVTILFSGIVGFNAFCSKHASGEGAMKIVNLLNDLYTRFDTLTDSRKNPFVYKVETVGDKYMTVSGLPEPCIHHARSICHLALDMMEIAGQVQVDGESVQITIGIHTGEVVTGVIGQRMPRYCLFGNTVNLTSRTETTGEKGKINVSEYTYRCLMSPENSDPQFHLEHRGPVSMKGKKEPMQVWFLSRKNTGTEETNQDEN
Assay: Effect on a recombinant guanylate cyclase reporter cell line
Assay type: cell-based
Settings: MEC = minimum effective concentration; in some cases mean values for individual determinations
Summary of the method: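 Compounds tested in a recombinant guanylate cyclase reporter cell line per a published method. Potency expressed as minimum effective concentration (MEC), sometimes as mean of individual determinations.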

Row | MEC [µM] | SMILES
1 | 3.0 | Cc1nc2c(OCc3c(F)cccc3F)cccn2c1C(=O)Nc1cnn(CCOS(N)(=O)=O)c1 [Example 139, 2-{4-[({8-[(2,6-Difluorobenzyl)oxy]-2-methylimidazo[1,2-a]pyridin-3-yl}carbonyl)amino]-1H-pyrazol-1-yl}ethyl sulphamate trifluoroacetate]
2 | 0.03 | Cc1nc2c(OCc3c(F)cccc3F)cccn2c1C(=O)Nc1ccnc2ccc(F)cc12 [Example 54, 8-[(2,6-Difluorobenzyl)oxy]-N-(6-fluoroquinolin-4-yl)-2-methylimidazo[1,2-a]pyridine-3-carboxamide]
3 | 3.0 | Cc1nn(C)c(C)c1NC(=O)c1c(C)nc2c(OCc3c(F)cccc3F)cccn12 [Example 57, 8-[(2,6-Difluorobenzyl)oxy]-2-methyl-N-(1,3,5-trimethyl-1H-pyrazol-4-yl)imidazo[1,2-a]pyridine-3-carboxamide]
4 | 0.1 | Cc1nc2c(OCc3c(F)cccc3F)cc(Cl)cn2c1C(=O)Nc1cnn(CCO)c1 [Example 46, 6-chloro-8-[(2,6-difluorobenzyl)oxy]-N-[1-(2-hydroxyethyl)-1H-pyrazol-4-yl]-2-methylimidazo[1,2-a]pyridine-3-carboxamide]
5 | 0.3 | Cc1nc2c(OCc3c(F)cccc3F)cccn2c1C(=O)Nc1n[nH]c2ccccc12 [Example 80, 8-[(2,6-Difluorobenzyl)oxy]-N-(1H-indazol-3-yl)-2-methylimidazo[1,2-a]pyridine-3-carboxamide]
6 | 0.3 | Cc1ccc2c(NC(=O)c3c(C)nc4c(OCc5c(F)cccc5F)cccn34)c(C)ccc2n1 [Example 63]
7 | 0.3 | Cc1nc2c(OCc3c(F)cccc3F)cccn2c1C(=O)Nc1cccc2ncccc12 [Example 68]
8 | 3.0 | Cc1nc2c(OCc3c(F)cccc3F)cccn2c1C(=O)Nc1cccc(N2CCN(C)CC2)c1 [Example 99]
9 | 0.3 | Cc1nc2c(OCc3c(F)cccc3F)cc(Cl)cn2c1C(=O)Nc1cn[nH]c1C [Example 47, 6-chloro-8-[(2,6-difluorobenzyl)oxy]-2-methyl-N-(5-methyl-1H-pyrazol-4-yl)imidazo[1,2-a]pyridine-3-carboxamide + 6-chloro-8-[(2,6-difluorobenzyl)oxy]-2-methyl-N-(3-methyl-1H-pyrazol-4-yl)imidazo[1,2-a]pyridine-3-carboxamide]
10 | 3.0 | Cc1nc(NC(=O)c2c(C)nc3c(OCc4c(F)cccc4F)cccn23)oc1C [Example 144, 8-[(2,6-difluorobenzyl)oxy]-N-(4,5-dimethyl-1,3-oxazol-2-yl)-2-methylimidazo[1,2-a]pyridine-3-carboxamide]
11 | 0.3 | Cc1nc2c(OCc3c(F)cccc3F)cccn2c1C(=O)Nc1cccc2cc(Cl)ccc12 [Example 61]
12 | 1.0 | Cc1n[nH]c(C)c1NC(=O)c1c(C)nc2c(OCc3cccc(F)c3F)cc(Cl)cn12 [Example 53, 6-chloro-8-[(2,3-difluorobenzyl)oxy]-N-(3,5-dimethyl-1H-pyrazol-4-yl)-2-methylimidazo[1,2-a]pyridine-3-carboxamide]
13 | 3.0 | Cc1nc2c(OCc3c(F)cccc3F)cccn2c1C(=O)Nc1cnn(CCN(C)C)c1 [Example 134, 8-[(2,6-difluorobenzyl)oxy]-N-{1-[2-(dimethylamino)ethyl]-1H-pyrazol-4-yl}-2-methylimidazol[1,2-a] pyridine-3-carboxamide]
14 | 1.0 | Cc1nc2c(OCC3CCCCC3)cccn2c1C(=O)Nc1cnn(CCO)c1 [Example 124, 8-(cyclohexylmethoxy)-N-[1-(2-hydroxyethyl)-1H-pyrazol-4-yl]-2-methylimidazo[1,2-a]pyridine-3-carboxamide]
15 | 0.3 | Cc1cc(OCc2c(F)cccc2F)c2nc(C)c(C(=O)Nc3c(C)nn(CCO)c3C)n2c1 [Example 87]
16 | 0.1 | Cc1nc2c(OCc3c(F)cccc3F)cccn2c1C(=O)Nc1c(C(F)(F)F)n[nH]c1C [Example 76, 8-[(2,6-Difluorobenzyl)oxy]-2-methyl-N-[5-methyl-3-(trifluoromethyl)-1H-pyrazol-4-yl]imidazo[1,2-a]pyridine-3-carboxamide]
17 | 10 | Cc1nc2c(OCc3c(F)cccc3F)cccn2c1C(=O)Nc1cnn(CCN2CCS(=O)(=O)CC2)c1 [Example 129, 8-[(2,6-difluorobenzyl)oxy]-N-{1-[2-(1,1-dioxidothiomorpholin-4-yl)ethyl]-1H-pyrazol-4-yl}-2-methylimidazo[1,2-a] pyridine-3-carboxamide]
18 | 10 | Cc1nc2c(OCc3c(F)cccc3F)cccn2c1C(=O)Nc1cnn(CCN2CCC(O)C2)c1 (racemic) [Example 131, rac-8-[(2,6-difluorobenzyl)oxy]-N-{1-[2-(3-hydroxypyrrolidin-1-yl)ethyl]-1H-pyrazol-4-yl}-2-methylimidazol[1,2-a] pyridine-3-carboxamide]

Second part, the compound before the results:

Row | SMILES | MEC [µM]
19 | CCn1nc(C)c(NC(=O)c2c(C)nc3c(OCc4c(F)cccc4F)cccn23)c1C [Example 38, 8-[(2,6-Difluorobenzyl)oxy]-N-(1-ethyl-3,5-dimethyl-1H-pyrazol-4-yl)-2-methylimidazo[1,2-a]pyridine-3-carboxamide] | 1.0
20 | COc1cccc(C)c1NC(=O)c1c(C)nc2c(OCc3c(F)cccc3F)cccn12 [Example 15] | 0.3
21 | Cc1nc2c(OCc3c(F)cccc3F)cccn2c1C(=O)Nc1cccc(Cl)c1C [Example 14] | 0.3
22 | Cc1nc2c(OCc3c(F)cccc3F)cccn2c1C(=O)Nc1cnn(C(C)C)c1 [Example 27, 8-[(2,6-difluorobenzyl)oxy]-N-(1-isopropyl-1H-pyrazol-4-yl)-2-methylimidazo[1,2-a]pyridine-3-carboxamide] | 0.3
23 | Cc1n[nH]c(C(F)(F)F)c1NC(=O)c1c(C)nc2c(OCc3c(F)cccc3F)cc(Cl)cn12 [Example 40, 6-chloro-8-[(2,6-difluorobenzyl)oxy]-2-methyl-N-[3-methyl-5-(trifluoromethyl)-1H-pyrazol-4-yl]imidazo[1,2-a]pyridine-3-carboxamide] | 0.03
24 | Cc1nc2c(OCc3c(F)cccc3F)cccn2c1C(=O)Nc1cnn(CC(F)(F)F)c1 [Example 30, 8-[(2,6-difluorobenzyl)oxy]-2-methyl-N-[1-(2,2,2-trifluoroethyl)-1H-pyrazol-4-yl]imidazo[1,2-a]pyridine-3-carboxamide] | 0.3
25 | Cc1nn(C)cc1NC(=O)c1c(C)nc2c(OCc3c(F)cccc3F)cccn12 [Example 4] | 0.3
26 | Cc1noc(C)c1NC(=O)c1c(C)nc2c(OCc3c(F)cccc3F)cccn12 [Example 23, 8-[(2,6-difluorobenzyl)oxy]-N-(3,5-dimethyl-1,2-oxazol-4-yl)-2-methylimidazo[1,2-a]pyridine-3-carboxamide] | 0.65
27 | Cc1cccc(NC(=O)c2c(C)nc3c(OCc4c(F)cccc4F)cccn23)c1C [Example 12] | 0.3
28 | Cc1nc2c(OCc3c(F)cccc3F)cc(Cl)cn2c1C(=O)Nc1cnn(C(C)C)c1 [Example 45, 6-chloro-8-[(2,6-difluorobenzyl)oxy]-N-(1-isopropyl-1H-pyrazol-4-yl)-2-methylimidazo[1,2-a]pyridine-3-carboxamide] | 0.3
29 | Cc1nc2c(OCc3c(F)cccc3F)cccn2c1C(=O)Nc1cnn(CC(N)=O)c1 [Example 25, N-[1-(2-amino-2-oxoethyl)-1H-pyrazol-4-yl]-8-[(2,6-difluorobenzyl)oxy]-2-methylimidazo[1,2-a]pyridine-3-carboxamide] | 3.0
30 | CCn1nc(C)c(NC(=O)c2c(C)nc3c(OCCC(C(F)(F)F)C(F)(F)F)cc(C)cn23)c1C [Example 147, N-(1-Ethyl-3,5-dimethyl-1H-pyrazol-4-yl)-2,6-dimethyl-8-[4,4,4-trifluoro-3-(trifluoromethyl)butoxy]imidazo[1,2-a]pyridine-3-carboxamide] | 3.0
31 | Cc1nc2c(OCc3c(F)cccc3F)cccn2c1C(=O)Nc1cn[nH]c1 [Example 31, 8-[(2,6-difluorobenzyl)oxy]-2-methyl-N-(1H-pyrazol-4-yl)imidazo[1,2-a]pyridine-3-carboxamide] | 1.0
